In patent US12162863B2, “Modulators of stimulator of interferon genes (STING)” (RYVU THERAPEUTICS S.A., priority 2018, dated 2024):

Assays:
[1] = system: NF-κB pathway in THP-1 dual cells; assay: THP-1 Dual Reporter Assay, NF-κB pathway (SEAP reporter); assay type: cell-based; details: Homo sapiens, THP1-Dual, 18 h of stimulation, absorbance at 630 nm, read-out: THP1 Dual EC50 (μM) NFkB
Procedure: (§1) THP-1 Dual Reporter Assay
(§2) Compounds of the present invention were tested for their activity using THP-1 dual cells (Invivogen, cat no. thpd-nfis) allowing for simultaneous study of NF-κB pathway and the interferon regulatory factor (IRF) pathway. THP-1 dual cells contain luciferase reporter gene under the control of an ISG54 (interferon-stimulated gene) minimal promoter in conjunction with five interferon-stimulated response elements and a secreted embryonic alkaline phosphatase reporter gene under the control an IFN (interferon)-β minimal promoter fused to five copies of the NF-κB consensus transcriptional response element with three copies of the c-Rel binding site. Following 18 h of stimulation with STING agonist, medium was collected and transferred onto fresh cell culture plate. To verify activity of the IRF pathway, luminescence activity was measured with standard laboratory plate reader immediately after addition 10 μl of the medium to 50 μl of luminescence reagent (Invivogen, cat. No. rep-qlc2). To verify activity of NF-κB pathway, 20 μl of the medium was mixed with 80 μl of a detection medium (Invivogen, cat. No. rep-qb2) and incubated for 2 hours at 37° C. in a humidified atmosphere containing 5% CO2. Next, absorbance at 630 nm was recorded using standard laboratory plate reader.

human STING = human STING (Homo sapiens, UniProt Q86WV6); assay: Fluorescence Thermal Shift assay; assay type: binding; details: 50 μM compound; STING 0.1 mg/ml; 20 minutes preincubation; read-out: [hSTING] FTS, ΔTm [° C.] for 50 μM
Procedure: Fluorescence Thermal Shift Assay Compounds of the present invention were tested for binding to human STING in Fluorescence Thermal Shift assay. STING was preincubated with the compounds for 20 minutes in 50 mM Hepes, 150 mM NaCl, pH 7.5 in 16 μl volume, following by adding 4 μl of SyproOrange dye dilution (ThermoFisher, cat no. S-6651). Final STING concentration was 0.1 mg/ml. Thermal unfolding was performed in Real-Time PCR QuantStudio 6 Flex System (Applied Biosystems), from 25 to 99° C., with continuous ramp mode and ramp rate 0.033° C./s. The data were analyzed using Protein Thermal Shift Software (ThermoFisher). […] For example, ΔTm [° C.] of FTS assay for following examples are: […]

[2] = system: interferon regulatory factor (IRF) pathway in THP-1 dual cells; assay: THP-1 Dual Reporter Assay, IRF pathway (luciferase reporter); assay type: cell-based; details: Homo sapiens, THP1-Dual, 18 h of stimulation, luminescence
Procedure: as §1, §2

Chain of human STING (Q86WV6 whole entry H232R): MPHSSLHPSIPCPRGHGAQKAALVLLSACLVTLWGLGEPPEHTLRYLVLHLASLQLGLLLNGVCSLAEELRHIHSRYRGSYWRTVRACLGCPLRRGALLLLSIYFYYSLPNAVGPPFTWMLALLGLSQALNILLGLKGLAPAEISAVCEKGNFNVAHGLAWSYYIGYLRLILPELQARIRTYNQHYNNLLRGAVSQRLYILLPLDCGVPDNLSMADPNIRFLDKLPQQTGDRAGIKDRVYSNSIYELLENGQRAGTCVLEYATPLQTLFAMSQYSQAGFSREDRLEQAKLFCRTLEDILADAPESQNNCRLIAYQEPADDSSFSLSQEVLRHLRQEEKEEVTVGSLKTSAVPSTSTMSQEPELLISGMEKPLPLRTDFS

Row | EC50 [1] [µM] | ΔTm at 50 µM (human STING) [°C] | EC50 [2] [µM] | SMILES
1 | ≥ 20 | < 2.5 | 10 to 20 | Cc1cc(CN(CCCn2ccnc2)Cc2coc3ccccc3c2=O)ccn1 [Example 25, 3-({[3-(1H-imidazol-1-yl)propyl][(2-methylpyridin-4-yl)methyl]amino}methyl)-4H-chromen-4-one]
2 | ≥ 20 | < 2.5 | ≥ 20 | Cc1ccc2c(=O)c(CN(CCCn3ccnc3)Cc3ccnc(F)c3)coc2c1C [Example 26, 3-({[(2-fluoropyridin-4-yl)methyl][3-(1H-imidazol-1-yl)propyl]amino}methyl)-7,8-dimethyl-4H-chromen-4-one]
3 | ≥ 20 | > 2.5 | 10 to 20 | COc1cc(CN(CCCn2ccnc2)Cc2coc3cc(O)ccc3c2=O)ccn1 [Example 27, 7-hydroxy-3-({[3-(1H-imidazol-1-yl)propyl][(2-methoxypyridin-4-yl)methyl]amino}methyl)-4H-chromen-4-one]
4 | ≥ 20 | > 2.5 | ≥ 20 | Cn1cc(CN(CCCn2ccnc2)Cc2ccncc2)c(=O)c2ccccc21 [Example 31, 3-({[3-(1H-imidazol-1-yl)propyl][(pyridin-4-yl)methyl]amino}methyl)-1-methyl-1,4-dihydroquinolin-4-one]
5 | ≥ 20 | < 2.5 | 10 to 20 | O=c1c(CN(CCCn2ccnc2)Cc2ccncc2)coc2ccccc12 [Example 33, 3-({[3-(1H-imidazol-1-yl)propyl](pyridin-4-ylmethyl)amino}methyl)-4H-chromen-4-one]
6 | ≤ 10 | > 2.5 | ≤ 10 | COc1cccc(-c2ccc3c(=O)c(CN(CCCn4ccnc4)Cc4ccncc4)coc3c2)c1 [Example 40, 3-({[3-(1H-imidazol-1-yl)propyl][(pyridin-4-yl)methyl]amino}methyl)-7-(3-methoxyphenyl)-4H-chromen-4-one]
7 | ≥ 20 | < 2.5 | ≥ 20 | CCn1cc(CN(CCCn2ccnc2)Cc2ccncc2)c(=O)c2ccccc21 [Example 43, 1-ethyl-3-({[3-(1H-imidazol-1-yl)propyl](pyridin-4-ylmethyl)amino}methyl)-1,4-dihydroquinolin-4-one]
8 | ≤ 10 | > 2.5 | ≤ 10 | CN1CCN(c2cc3occ(CN(CCCn4ccnc4)Cc4ccncc4)c(=O)c3cc2F)CC1 [Example 49, 6-fluoro-3-({[3-(1H-imidazol-1-yl)propyl][(pyridin-4-yl)methyl]amino}methyl)-7-(4-methylpiperazin-1-yl)-4H-chromen-4-one]
9 | ≤ 10 | > 2.5 | ≤ 10 | O=c1c(CN(CCCn2cnc3ccccc32)Cc2ccncc2)coc2c1ccc1ccccc12 [Example 50, 3-({[3-(1H-1,3-benzodiazol-1-yl)propyl][(pyridin-4-yl)methyl]amino}methyl)-4H-benzo[h]chromen-4-one]

The remaining lines, values behind:

Row | SMILES | EC50 [1] [µM] | ΔTm at 50 µM (human STING) [°C] | EC50 [2] [µM]
10 | O=c1c(CN(CCCc2cccnc2)Cc2ccncc2)coc2c1ccc1ccccc12 [Example 28, 3-({[3-(pyridin-3-yl)propyl](pyridin-4-ylmethyl)amino}methyl)-4H-benzo[h]chromen-4-one] | ≤ 10 | > 2.5 | ≤ 10
11 | O=c1c(CN(CCCn2ccnc2)Cc2ccncc2)coc2ccc(F)cc12 [Example 29, 6-fluoro-3-({[3-(1H-imidazol-1-yl)propyl][(pyridin-4-yl)methyl]amino}methyl)-4H-chromen-4-one] | 10 to 20 | > 2.5 | ≤ 10
12 | COc1cc(CN(CCCn2ccnc2)Cc2coc3c(ccc4ccccc43)c2=O)ccn1 [Example 30, 3-({[3-(1H-imidazol-1-yl)propyl][(2-methoxypyridin-4-yl)methyl]amino}methyl)-4H-benzo[h]chromen-4-one] | ≤ 10 | > 2.5 | ≤ 10
13 | COc1ccc(-c2ccc3c(=O)c(CN(CCCn4ccnc4)Cc4ccncc4)coc3c2)cc1 [Example 32, 3-({[3-(1H-imidazol-1-yl)propyl](pyridin-4-ylmethyl)amino}methyl)-7-(4-methoxyphenyl)-4H-chromen-4-one] | ≥ 20 | > 2.5 | 10 to 20
14 | COc1cc(CN(CCCn2ccnc2)Cc2coc3cc(N4CCN(C)CC4)ccc3c2=O)ccn1 [Example 34, 3-({[3-(1H-imidazol-1-yl)propyl][(2-methoxypyridin-4-yl)methyl]amino}methyl)-7-(4-methylpiperazin-1-yl)-4H-chromen-4-one] | 10 to 20 | < 2.5 | ≥ 20
15 | Cc1oc2ccccc2c(=O)c1CN(CCCn1ccnc1)Cc1ccncc1 [Example 36, 3-({[3-(1H-imidazol-1-yl)propyl][(pyridin-4-yl)methyl]amino}methyl)-2-methyl-4H-chromen-4-one] | 10 to 20 | > 2.5 | ≤ 10
16 | O=c1c(CN(CCCn2ccnc2)Cc2ccncc2)coc2cc(Br)c(F)cc12 [Example 37, 7-bromo-6-fluoro-3-({[3-(1H-imidazol-1-yl)propyl][(pyridin-4-yl)methyl]amino}methyl)-4H-chromen-4-one] | ≤ 10 | > 2.5 | ≤ 10
17 | COc1ccc(-c2ccc3c(=O)c(CN(CCCn4ccnc4)Cc4ccncc4)coc3c2)cc1OC [Example 38, 7-(3,4-dimethoxyphenyl)-3-({[3-(1H-imidazol-1-yl)propyl][(pyridin-4-yl)methyl]amino}methyl)-4H-chromen-4-one] | ≥ 20 | < 2.5 | ≥ 20
18 | COc1ccccc1-c1ccc2c(=O)c(CN(CCCn3ccnc3)Cc3ccncc3)coc2c1 [Example 39, 3-({[3-(1H-imidazol-1-yl)propyl][(pyridin-4-yl)methyl]amino}methyl)-7-(2-methoxyphenyl)-4H-chromen-4-one] | 10 to 20 | > 2.5 | ≤ 10
19 | Cc1oc2ccccc2c(=O)c1CN(CCCc1cccnc1)Cc1ccncc1 [Example 41, 2-methyl-3-({[3-(pyridin-3-yl)propyl][(pyridin-4-yl)methyl]amino}methyl)-4H-chromen-4-one] | 10 to 20 | > 2.5 | 10 to 20
20 | COc1ccc(-c2cc3occ(CN(CCCn4ccnc4)Cc4ccncc4)c(=O)c3cc2F)cc1 [Example 42, 6-fluoro-3-({[3-(1H-imidazol-1-yl)propyl][(pyridin-4-yl)methyl]amino}methyl)-7-(4-methoxyphenyl)-4H-chromen-4-one] | ≤ 10 | > 2.5 | ≤ 10
21 | COc1cc(CN(CCCn2ccnc2)Cc2cn(C)c3ccccc3c2=O)ccn1 [Example 44, 3-({[3-(1H-imidazol-1-yl)propyl][(2-methoxypyridin-4-yl)methyl]amino}methyl)-1-methyl-1,4-dihydroquinolin-4-one] | ≥ 20 | < 2.5 | 10 to 20
22 | O=c1c(CN(CCCn2ccnc2)Cc2ccncc2)coc2c(F)cc(F)cc12 [Example 45, 6,8-difluoro-3-({[3-(1H-imidazol-1-yl)propyl][(pyridin-4-yl)methyl]amino}methyl)-4H chromen-4-one] | ≥ 20 | < 2.5 | 10 to 20
23 | COc1cc(CN(CCCn2ccnc2)Cc2c(C)oc3ccccc3c2=O)ccn1 [Example 46, 3-({[3-(1H-imidazol-1-yl)propyl][(2-methoxypyridin-4-yl)methyl]amino}methyl)-2-methyl-4H-chromen-4-one] | ≥ 20 | < 2.5 | ≤ 10
24 | O=c1c(CN(CCCn2ccnc2)Cc2ccncc2)coc2c1cc(F)c1ccccc12 [Example 47, 6-fluoro-3-({[3-(1H-imidazol-1-yl)propyl][(pyridin-4-yl)methyl]amino}methyl)-4H benzo[h]chromen-4-one] | ≤ 10 | > 2.5 | ≤ 10
25 | Cc1oc2cc(Br)ccc2c(=O)c1CN(CCCn1ccnc1)Cc1ccncc1 [Example 48, 7-bromo-3-({[3-(1H-imidazol-1-yl)propyl][(pyridin-4-yl)methyl]amino}methyl)-2-methyl-4H-chromen-4-one] | ≤ 10 | > 2.5 | ≤ 10
26 | COc1cc(CN(CCCn2ccnc2)Cc2coc3c(C)c(C)ccc3c2=O)ccn1 [Example 51, 3-({[3-(1H-imidazol-1-yl)propyl][(2-methoxypyridin-4-yl)methyl]amino}methyl)-7,8-dimethyl-4H-chromen-4-one] | ≤ 10 | > 2.5 | ≤ 10
